Source: patent US8865659B2, “Compositions for prevention or treatment of Hepatitis C virus containing ginsenoside Rg3 as an active ingredient” (priority 2012, dated 2014)

Experiments:
[1] = system: TNF-α; test: Real-time PCR for TNF-α level in virus-infected Huh 7.5.1 cells; type: cell-based
Experimental: To identify a mechanism of apoptosis action, virus-infected Huh 7.5.1 cells were treated with ginsenoside Rg3 and conducted real-time PCR (Taqman Real-time Quantitative RT-PCR Assay for HCV RNA Detection) to estimate TNF-α level.
First, a total number of 50,000 Huh 7.5.1 cells were incubated in 24 well and a total RNA was extracted from the above stated treated cells using Rneasy mini kit (QIAGEN Corp.). And then, the total RNA was quantified by Nanodrop 1000 (Thermo Scientific Corp.), and manufactured cDNA by conducting RT PCR (Reverse Transcription-PCR) using i cycler, (BIO-RAD Co.). After the synthesized cDNAs were reacted with TaqMan GX Master Mix (Applied Biosystems, Branchburg, N.J.), TNF-α, B-actin mRNAs were quantified by 96 well real-time PCR (StepOne Plus Sequence detector system, Applied Biosystems). Verified primer/probe set was purchased to conduct the TaqMan Gene Expression assay in this experiment (Gene: TNF-α (TNF-alpha) # Hs01113624_g1, Gene Symbol: ACTB # Hs99999903_m1).

[2] = system: thioredoxin; test: Western blotting against thioredoxin in JFH-1 infected Huh 7.5.1 cells; type: cell-based; settings: 100 μM, 72 hours
Experimental: To examine the ginsenoside Rg3 effect onto anti-oxidant enzymes, western blotting analysis against thioredoxin, an anti-oxidant enzyme induced by Hepatitis C, was carried out. the analysis was conducted 72 hours after the samples of Huh 7.5.1 cells treated with each 100 μM of seven ginsenosides (Ro, Re, Rg1, Rg2, Rg3, Rh1, Rh2) as described above in the Example 3.
Specifically, western blotting analysis was carried out as follow. First, the above described samples were prepared, mixed with a sample buffer in tubes, and heated at 100° C. for 10 minutes. The tubes were cooled on ice and centrifuged. The electrophoresis was carried out with the prepared samples and molecular weight markers were put in. And then, they were transferred to a PVDF membrane (hydrophobic). After blocking with 5% skin milk for an hour, primary antibodies of thioredoxin was added. After staying overnight at 4° C., washing three times for every 10 minutes, blocking with 5% skin milk for an hour at the room temperature was carried out. After that, each secondary antibody was added and waited one hour for its reaction and washing three times for every 10 minutes were carried out. Then, the membrane was stained by 1:1 mixture of detection reagents A (Luminol Enhancer solution) and B (Peroxide solution) and developed with X ray film.

CC(C)=CCC[C@](C)(O)[C@H]1CC[C@]2(C)[C@@H]1[C@H](O)C[C@@H]1[C@@]3(C)CC[C@H](O[C@@H]4O[C@H](CO)[C@@H](O)[C@H](O)[C@H]4O[C@@H]4O[C@H](CO)[C@@H](O)[C@H](O)[C@H]4O)C(C)(C)[C@@H]3CC[C@]12C [ginsenoside Rg3]
level of TNF-α [1]: remarkably decreased
thioredoxin [2]: decreased
